Assay results as given in patent US11311538B2, “Compositions and methods for targeting cancers” (YALE UNIVERSITY, priority 2018, dated 2022).

Columns and labels:
Type in all cases: in vivo, mouse
[1] = tested on: shFH-expressing HEK293FT tumor xenografts; test: Tumor growth delay assay, shFH HEK293FT xenografts
From the text: In vivo efficacy studies: HEK293FT xenografts. Female athymic nu/nu mice (Hsd:Athymic Nude-Foxnlnu, Envigo) were used for all in vivo xenograft studies. Mice were quarantined for at least 1 week before experimental manipulation. Tumors were formed using shRNA-expressing versions of the tumorigenic human embryonic kidney cell-derived line, HEK293FT. HEK293FT is a subline of HEK293 cells that has been transformed by expression of SV40 Large T-antigen. […], or shCTRL (non-targeted control) expressing HEK293FT cells were implanted subcutaneously (5×10^6 cells in 0.1 cc PBS) in the right flank of nude mice. Two efficacy studies were conducted. In one, mice were randomized into treatment and non-treated groups (10 mice/group) at day 3, with treatment initiation 4 days post implant. In a second independent in vivo efficacy study, mice were injected as above with 10 mice per group, and treatment was started only once the tumor volumes reached […]. For both studies, mice were visually observed daily and tumors were measured three times per week by calipers to determine tumor volume using the formula: Volume=L×W×W×0.532. Mice were fed with a grain based rodent diet containing Doxycycline at 200 mg/kg (Bioserv, Catalog #S3888). BMN-673 was solubilized in DMSO and diluted with PBS containing 10% dimethylacetamide (Sigma-Aldrich) and 6% Solutol (Sigma). BMN-673 (0.5 mg/kg, 0.2 cc), or vehicle (0.2 cc) was administered by oral gavage once daily for the duration of the experiment. Mean (geometric) tumor volume (mm^3) was plotted over time to monitor tumor growth. P-values were determined by ANOVA with repeated measures. In vivo efficacy studies: UOK 262 xenografts. Female athymic nu/nu mice (Hsd:Athymic Nude-Foxnlnu, Envigo) were used for all in vivo xenograft studies. Mice were quarantined for at least 1 week before experimental manipulation. UOK 262 cells were implanted subcutaneously using 5×10^6 cells in 0.1 cc PBS mixed with 0.1 cc of Corning Matrigel Matrix (Cat. No. 354234) per animal. Mice were randomized at day 3 day into two groups (n=10/group). […]

[2] = tested on: shCTRL-expressing HEK293FT tumor xenografts; test: Tumor growth delay assay, shCTRL HEK293FT xenografts
From the text: (§1) In vivo efficacy studies: HEK293FT xenografts. Female athymic nu/nu mice (Hsd:Athymic Nude-Foxnlnu, Envigo) were used for all in vivo xenograft studies. Mice were quarantined for at least 1 week before experimental manipulation. Tumors were formed using shRNA-expressing versions of the tumorigenic human embryonic kidney cell-derived line, HEK293FT. HEK293FT is a subline of HEK293 cells that has been transformed by expression of SV40 Large T-antigen. […], or shCTRL (non-targeted control) expressing HEK293FT cells were implanted subcutaneously (5×10^6 cells in 0.1 cc PBS) in the right flank of nude mice. Two efficacy studies were conducted. In one, mice were randomized into treatment and non-treated groups (10 mice/group) at day 3, with treatment initiation 4 days post implant. In a second independent in vivo efficacy study, mice were injected as above with 10 mice per group, and treatment was started only once the tumor volumes reached […]. For both studies, mice were visually observed daily and tumors were measured three times per week by calipers to determine tumor volume using the formula: Volume=L×W×W×0.532. Mice were fed with a grain based rodent diet containing Doxycycline at 200 mg/kg (Bioserv, Catalog #S3888). […] P-values were determined by ANOVA with repeated measures. […]

[3] = LC/MS analysis of intratumoral BMN-673; details: 24 h after single gavage dose of 1 or 10 mg/kg, LC/MS (FIG. 4J)
From the text: In vivo efficacy studies: HEK293FT xenografts. Female athymic nu/nu mice (Hsd:Athymic Nude-Foxnlnu, Envigo) were used for all in vivo xenograft studies. Mice were quarantined for at least 1 week before experimental manipulation. Tumors were formed using shRNA-expressing versions of the tumorigenic human embryonic kidney cell-derived line, HEK293FT. HEK293FT is a subline of HEK293 cells that has been transformed by expression of SV40 Large T-antigen. […], or shCTRL (non-targeted control) expressing HEK293FT cells were implanted subcutaneously (5×10^6 cells in 0.1 cc PBS) in the right flank of nude mice. Two efficacy studies were conducted. In one, mice were randomized into treatment and non-treated groups (10 mice/group) at day 3, with treatment initiation 4 days post implant. […] For both studies, mice were visually observed daily and tumors were measured three times per week by calipers to determine tumor volume using the formula: Volume=L×W×W×0.532. […] P-values were determined by ANOVA with repeated measures. […] The concentrations of BMN-673 in tumor samples were determined using liquid chromatography with tandem mass spectrometry (LC-MS/MS). […] BMN673 was monitored using the positive electrospray ionization mode at the most sensitive and specific mass transition, m/z 381.0>228.8. […]

[4] = tested on: HLRCC UOK 262 xenograft tumors; test: Tumor growth delay assay, UOK 262 xenografts; details: BMN-673 0.5 mg/kg gavage daily, started at average tumor size 250 mm^3 (FIG. 4M)
From the text: as §1

## Cn1ncnc1[C@H]1c2n[nH]c(=O)c3cc(F)cc(c23)N[C@@H]1c1ccc(F)cc1 [BMN-673, BMN-673 (Talazoparib)]
[1]; treatment after tumors reached 95-150 mm^3, 0.5 mg/kg oral gavage once daily (FIG. 4H)
  tumor growth vs vehicle, FH-deficient tumors: inhibited the growth
[1]; treatment beginning four days after implantation, 0.5 mg/kg oral gavage once daily (FIG. 4E)
  tumor growth vs vehicle, shFH tumors: robust suppression of tumor growth
[1]; two separate sets of in vivo efficacy studies, 0.5 mg/kg oral gavage once daily
  growth of FH-deficient tumors: significantly inhibited the growth
[2]; treatment after tumors reached 95-150 mm^3, 0.5 mg/kg oral gavage once daily (FIG. 4I)
  tumor growth vs vehicle, shCTRL tumors: no growth inhibition
[2]; treatment beginning four days after implantation, 0.5 mg/kg oral gavage once daily (FIG. 4F)
  tumor growth vs vehicle, shCTRL tumors: no effect
[3]
  intra-tumoral BMN-673 levels, shSDHB vs shCTRL HEK293FT tumors: no significant difference
[4]
  tumor growth delay, UOK 262 xenografts: substantial growth delay
